# Experimental data from patent publication US5554637A, “Use of leflunomide for inhibiting interleukin 1 alpha” (priority 1993, dated 1996).
# “Also recorded” adds a separate entry of the source.
# Legend:
# [1] = test system: IL1alpha; assay: IL1alpha synthesis and liberation in lipopolysaccharide-stimulated mononuclear cells from human blood (sandwich enzyme immuno test); format: cell-based; details: for activity at 10 µM: concentration 0.01 mmol/l; for activity at 100 µM: concentration 0.1 mmol/l; for effect on the IL1alpha level: summary in words of Table 1
# Procedure: The mononuclear cells from freshly isolated human citrate blood were enriched in accordance with known standard procedures (see Tiku et al., J. Immunol. 136/10 (1986) 3677):
# 10 ml of freshly prepared human citrate blood were carefully underlaid with 15 ml of Lynnphoprep^(R) (Molter GmbH, Heidelberg) and then centrifuged at 400 ×g for 40 min. at 20° C. The cell fraction which was visible as a white ring at the phase boundary was withdrawn with the aid of a syringe, diluted 1:1 (v/v) with PM-16 buffer (from Serva Feinbiochemica GmbH & Co. KG, Heidelberg) and then centrifuged, as above, for 10 min. The supernatant was washed with 10 ml of RPMI 1640 buffer (Gibco, Berlin) to which 300 mg/1 L-glutamine had previously been added. The washed cell fraction was taken up in 1 ml of RPMI 1640 to which 300 mg/1 L-glutamine, 25 mmol/1 HEPES (Gibco, Berlin), […] streptomycin and […] penicillin had previously been added. Using a cell counter (type IT, from Coulter Diagnostics, Krefeld), the cell suspension, which is composed of about 90% lymphocytes and 10% monocytes, was adjusted to about 5 million cells/mi. Cell viability was monitored before and after the inhibition experiments using the known lactate dehydrogenase method. In this case, no change in viability was observed.
# The synthesis and liberation of cellular IL1alpha was induced by adding a solution of 500 ng of lipopolysaccharide (Salmonella abortus equi, Sigma GmbH, Deisenhofen) in 0.01 ml of dimethyl sulfoxide/water (1:10, v/v) to 0.48 ml of the above-described cell fraction. At the same time, a solution of leflunomide or leflunomide metabolite in 0.01 ml of dimethylsulfoxide (for the final concentration in each case, see Tab. 1) was added to the cell fraction and the mixture was left at 37° C. for 20 h in a commercially available incubator. After cooling down to 0° C., the samples were centrifuged for 1 min. in a bench centrifuge and in each case 0.025 ml aliquots of the supernatant were examined for their IL1alpha content using a "sandwich" enzyme immuno test kit (from Biermann GmbH, Bad Nauheim) in accordance with the manufacturer's instructions. The control values were determined without the addition of leflunomide or its metabolites and set at 100%. In particular, any possible influence of dimethyl sulfoxide on the IL1alpha level was excluded by appropriate comparative measurements.
# [2] = test system: cytokines; assay: synthesis and liberation of cytokines from human blood cells; format: cell-based; details: in words
# Procedure: The cell fraction which was visible as a white ring at the phase boundary was withdrawn with the aid of a syringe, diluted 1:1 (v/v) with PM-16 buffer (from Serva Feinbiochemica GmbH & Co. KG, Heidelberg) and then centrifuged, as above, for 10 min. […] Using a cell counter (type IT, from Coulter Diagnostics, Krefeld), the cell suspension, which is composed of about 90% lymphocytes and 10% monocytes, was adjusted to about 5 million cells/mi. Cell viability was monitored before and after the inhibition experiments using the known lactate dehydrogenase method.
# At the same time, a solution of leflunomide or leflunomide metabolite in 0.01 ml of dimethylsulfoxide (for the final concentration in each case, see Tab. 1) was added to the cell fraction and the mixture was left at 37° C. for 20 h in a commercially available incubator. […] The control values were determined without the addition of leflunomide or its metabolites and set at 100%.
# [3] = metabolism of leflunomide under the conditions of the cell experiment (HPLC); format: in vitro ADME, human; details: human, mononuclear cells; mononuclear cell fraction, incubation conditions of Example 1, HPLC
# [4] = test system: mononuclear cells; assay: as above; format: in vitro ADME, human; details: in words; isolated human mononuclear cells
# [5] = Homo sapiens, control without substance = 100%, LPS 500 ng, 37° C., 20 h, read-out: IL1alpha in the supernatant, % +/- standard deviation
SMILES,"activity at 10 µM [1, 5] [%]","activity at 100 µM [1, 5] [%]",effect on the IL1alpha level [1],effect on the synthesis and liberation of cytokines from human blood cells [2],"activity at 0.1 µM ([1]; Homo sapiens, concentration 0.0001 mmol/l, control without substance = 100%, LPS 500 ng, 37° C., 20 h, read-out: IL1alpha in the supernatant, % +/- standard deviation) [%]","activity at 5 µM ([1]; Homo sapiens, concentration 0.005 mmol/l, control without substance = 100%, LPS 500 ng, 37° C., 20 h, read-out: IL1alpha in the supernatant, % +/- standard deviation) [%]","activity at 50 µM ([1]; Homo sapiens, concentration 0.05 mmol/l, control without substance = 100%, LPS 500 ng, 37° C., 20 h, read-out: IL1alpha in the supernatant, % +/- standard deviation) [%]",half-life [3] [h],metabolism of leflunomide under the experimental conditions [4]
"C/C(O)=C(\C#N)C(=O)Nc1ccc(C(F)(F)F)cc1 [Leflunomide metabolite, N-(4-trifluoromethylphenyl)-2-cyano-3-hydroxycrotonamide]",100 ± 5,98 ± 7,practically no effect on the IL1alpha level,does not exhibit this advantageous effect,,,,,
"Cc1oncc1C(=O)Nc1ccc(C(F)(F)F)cc1 [Leflunomide, N-(4-trifluoromethylphenyl)-5-methylisoxazole-4-carboxamide]",54 ± 5,22 ± 5,clearly lowered,strong inhibitory effect,83 ± 16,62,22 ± 2,~10,"did not, to any appreciable extent, metabolize the leflunomide to its metabolites; also recorded: metabolized only very slowly; also recorded: no appreciable metabolism"
